# Assay results published in US20170182031A1, “REDUCING DRUG LIKING IN A SUBJECT” (Purdue Pharma, priority 2014, published 2017).
# Like-named read-outs stand apart in the source and are kept apart here.
# Experiments:
# [1] = cited from earlier work
structure (smiles),measurement,setting,value
C=CCN1CC[C@]23c4c5ccc(O)c4O[C@H]2C(=O)CC[C@@]3(O)[C@H]1C5 [naloxone],Time by which mean plasma naloxone concentration was BLQ,naloxone 1.875 μg/kg IV,≤ 15 min
same,Time by which mean plasma naloxone concentration was BLQ,naloxone 15 μg/kg IV,≤ 120 min
same,Time of maximum mean plasma naloxone concentration,"post-infusion, each treatment",5 min
same,oral bioavailability,[1],< 3%
